One assay has as its system hexokinase. Description: Calorimetric deconvolution of a cofactor mixture with hexokinase and glucose. The assay is classed as biochemical. To be noted: 5 μL of 20 μM hexokinase into 100 μM glucose and cofactors at 1 mM. How it is done:
Hexokinase and glucose were present in each test. Various mixtures of cofactors were added to each test. Only when ATP was present in the mixture was a significant amount of heat generated. 5 μL injections of a 20 μM solution of hexokinase were titrated into a solution of 100 μM glucose and one or more “cofactors”, all at 1 mM concentration. In the initial experiment with the entire library of 15 cofactors present, enzymatic turnover was observed (as in FIG. 12a(ii)). We were then able to successfully separate out the cofactors in subsequent experiments to determine which one was actually necessary to allow the hexokinase to turn over the glucose. […] Only tiny heats of dilution are observed when ATP is absent;

The target in the next assay is E. coli protein YJEQ (Escherichia coli, UniProt P39286). The experiment in a line: Calorimetric titration of GTP-gamma-S into E. coli protein YJEQ. The assay is classed as binding. To be noted: 5 μL injections of 11 mM GTP-gamma-S into 2 mL of 385 μM protein. The protocol:
5 μL injections of an 11 mM GTP-gamma-S solution were titrated into 2 mL of a solution containing 385 μM of an E. coli protein for which no function was previously known.

`Nc1ncnc2c1ncn2[C@@H]1O[C@H](COP(=O)(O)OP(=O)(O)OP(=O)(O)O)[C@@H](O)[C@H]1O` [ATP]: the “heat on injection of hexokinase (cofactor needed for turnover of glucose)” value with hexokinase is “large negative heat”.
Consider `Nc1nc2c(ncn2[C@@H]2O[C@H](COP(=O)(O)OP(=O)(O)OP(O)(O)=S)[C@@H](O)[C@H]2O)c(=O)[nH]1` [GTP-gamma-S], for which, on E. coli protein YJEQ, the Kd (usually the concentration at which binding is half-saturated) was 115 µM.

These data come from patent US20030044800A1, “Drug discovery employing calorimetric target triage” (priority 2000, published 2003).
